“And” between values parts separate entries of the source, which are not always exact repeats. Identical values can stand only once.
Columns and labels:
[1] = Crystal; for vapor or sublimation pressure: Calculated from knudsen effusion weight loss; for Normal melting temperature: DTA
[2] = Molar enthalpy of transition or fusion; conditions: Crystal; DSC
[3] = molar enthalpy of vaporization or sublimation; conditions: 298.15 K; Crystal; Static calorimetry

c1ccc2c(c1)Nc1ccccc1S2 [10H-phenothiazine]
[1]
Conditions | vapor or sublimation pressure
357.16 K | 0.0001222 kPa and 0.000127 kPa and 0.0001245 kPa
359.11 K | 0.000157 kPa and 0.0001593 kPa and 0.000151 kPa
361.09 K | 0.0001862 kPa and 0.0001894 kPa
363.16 K | 0.0002302 kPa and 0.0002289 kPa and 0.0002278 kPa
365.1 K | 0.0002854 kPa and 0.0002713 kPa and 0.0002851 kPa
367.08 K | 0.0003408 kPa and 0.0003366 kPa and 0.0003279 kPa
369.16 K | 0.0004206 kPa and 0.0004159 kPa and 0.0004168 kPa
371.1 K | 0.0005122 kPa and 0.000496 kPa and 0.000513 kPa
373.09 K | 0.0006118 kPa and 0.0005996 kPa
375.14 K | 0.0007352 kPa and 0.0007169 kPa and 0.0007525 kPa
377.11 K | 0.0008924 kPa and 0.0008545 kPa and 0.0008994 kPa
379.1 K | 0.0009984 kPa and 0.0009874 kPa and 0.001053 kPa

Conditions | Molar enthalpy of transition or fusion [kcal/mol] | Normal melting temperature [°C] | molar enthalpy [kcal/mol]
[1] | – | 185.70 | –
[2] | 6.43 | – | –
[3] | – | – | 24.69

c1ccc2c(c1)Nc1ccccc1O2 [phenoxazine]
[1]
Conditions | vapor or sublimation pressure
333.18 K | 9.52e-05 kPa and 9.41e-05 kPa and 9.09e-05 kPa
335.2 K | 0.0001178 kPa and 0.000118 kPa and 0.0001119 kPa
337.1 K | 0.0001463 kPa and 0.000143 kPa and 0.0001421 kPa
339.17 K | 0.0001789 kPa and 0.0001744 kPa and 0.0001819 kPa
341.24 K | 0.0002193 kPa and 0.0002141 kPa and 0.0002236 kPa
343.14 K | 0.0002773 kPa and 0.0002712 kPa and 0.0002629 kPa
345.17 K | 0.0003274 kPa and 0.0003216 kPa and 0.0003308 kPa
347.19 K | 0.0004072 kPa and 0.0003893 kPa and 0.0004049 kPa
349.11 K | 0.000488 kPa and 0.0004919 kPa and 0.0004776 kPa
351.17 K | 0.000606 kPa and 0.0005906 kPa and 0.0006233 kPa
353.17 K | 0.0007525 kPa and 0.000734 kPa and 0.0007159 kPa
355.1 K | 0.0008813 kPa and 0.0008967 kPa and 0.0008889 kPa
357.1 K | 0.001069 kPa and 0.001075 kPa and 0.001077 kPa

Conditions | Molar enthalpy of transition or fusion [kcal/mol] | Normal melting temperature [°C] | molar enthalpy [kcal/mol]
[1] | – | 157.58 | –
[2] | 5.14 | – | –
[3] | – | – | 24.26
